This note sets out measurements from US20110319424A1, “NAPHTHYRIDIN-2(1H) -ONE COMPOUNDS USEFUL AS ANTIBACTERIALS” (priority 2008, published 2011).

A value given as a limit tells only on which side of the number the result lay.

This experiment relates to Mycobacterium tuberculosis H37Rv. Briefly: Mycobacterium tuberculosis H37Rv inhibition assay (MIC, resazurin fluorescence). It is filed as cell-based. The note with it: ATCC 25618 / H37Rv, 144 h, H37Rv strain (ATCC25618), Middlebrook 7H9, six days at 37° C. then resazurin 48 hours.
The compound `O=c1ccc2ncc(F)cc2n1CCN1CCC(NCc2ccc(Br)cn2)CC1` [Example 1, 1-[2-(4-{[(5-Bromo-2-pyridinyl)methyl]amino}-1-piperidinyl)ethyl]-7-fluoro-1,5-naphthyridin-2(1H)-one] came in with an MIC of no more than 1 µg/mL.

`Cl.Cl.O=c1ccc2ncc(F)cc2n1CCN1CCC(NCc2ccc(Br)cn2)CC1` [Example 1b, 1-[2-(4-{[(5-Bromo-2-pyridinyl)methyl]amino}-1-piperidinyl)ethyl]-7-fluoro-1,5-napthyridin-2(1H)-one dihydrochloride]: the MIC is no more than 1 µg/mL.

Compound `COc1cnc2ccc(=O)n(CCN3CCC(NCc4cnc(Br)s4)CC3)c2c1` [Example 2, 1-[2-(4-{[(2-Bromo-1,3-thiazol-5-yl)methyl]amino}-1-piperidinyl)ethyl]-7-(methyloxy)-1,5-naphthyridin-2(1H)-one] displayed a minimum inhibitory concentration (MIC) of no more than 1 µg/mL.

`COc1cnc2ccc(=O)n(CCN3CCC(NCc4cnc(Br)s4)CC3)c2c1.Cl` [Example 2b, 1-[2-(4-{[(2-Bromo-1,3-thiazol-5-yl)methyl]amino}-1-piperidinyl)ethyl]-7-(methyloxy)-1,5-naphthyridin-2(1H)-one hydrochloride]: the minimal inhibitory concentration (MIC) was no more than 1 µg/mL.

The compound `O=c1ccc2ncc(F)cc2n1CCN1CCC(NCc2ccc(Cl)c(Cl)c2)CC1` [Example 3, 1-[2-(4-{[(3,4-Dichlorophenyl)methyl]amino}-1-piperidinyl)ethyl]-7-fluoro-1,5-naphthyridin-2(1H)-one] gave an MIC of no more than 1 µg/mL.

`Cl.Cl.O=c1ccc2ncc(F)cc2n1CCN1CCC(NCc2ccc(Cl)c(Cl)c2)CC1` [Example 3b, 1-[2-(4-{[(3,4-Dichlorophenyl)methyl]amino}-1-piperidinyl)ethyl]-7-fluoro-1,5-naphthyridin-2(1H)-one dihydrochloride] gave an MIC of no more than 1 µg/mL.

The compound `COc1cnc2ccc(=O)n(CCN3CCC(NCc4ccc(C(F)(F)F)nc4)CC3)c2c1` [Example 4, 7-(Methyloxy)-1-{2-[4-({[6-(trifluoromethyl)-3-pyridinyl]methyl}amino)-1-piperidinyl]ethyl}-1,5-naphthyridin-2(1H)-one] registered an MIC of no more than 1 µg/mL.

`COc1cnc2ccc(=O)n(CCN3CCC(NCc4ccc(C(F)(F)F)nc4)CC3)c2c1.Cl` [Example 4b, 7-(Methyloxy)-1-{2-[4-({[6-(trifluoromethyl)-3-pyridinyl]methyl}amino)-1-piperidinyl]ethyl}-1,5-naphthyridin-2(1H)-one hydrochloride]: the minimal inhibitory concentration (MIC) was no more than 1 µg/mL.

As to `COc1cnc2ccc(=O)n(CCN3CCC(NCc4nc(C)c(C)s4)CC3)c2c1` [Example 6, 1-[2-(4-{[(4,5-Dimethyl-1,3-thiazol-2-yl)methyl]amino}-1-piperidinyl)ethyl]-7-(methyloxy)-1,5-naphthyridin-2(1H)-one], the minimal inhibitory concentration (MIC) is no more than 2.4 µg/mL.

In turn, `O=c1ccc2ncccc2n1CCN1CCC(NCc2ccc(Cl)c(Cl)c2)CC1` [Example 8, 1-[2-(4-{[(3,4-Dichlorophenyl)methyl]amino}-1-piperidinyl)ethyl]-1,5-naphthyridin-2(1H)-one] came in with an MIC of no more than 1 µg/mL.

On to `Cl.Cl.O=c1ccc2ncccc2n1CCN1CCC(NCc2ccc(Cl)c(Cl)c2)CC1` [Example 8b, 1-[2-(4-{[(3,4-Dichlorophenyl)methyl]amino}-1-piperidinyl)ethyl]-1,5-naphthyridin-2(1H)-one dihydrochloride], for which the MIC is no more than 1 µg/mL.

Consider `O=c1ccc2ncccc2n1CCN1CCC(NCc2ccc(Br)nc2)CC1` [Example 9, 1-[2-(4-{[(6-Bromo-3-pyridinyl)methyl]amino}-1-piperidinyl)ethyl]-1,5-naphthyridin-2(1H)-one], for which the MIC is no more than 2.4 µg/mL.

Take `COc1cnc2ccc(=O)n(CCN3CCC(NCc4ccc(Cl)c(Cl)c4)CC3)c2c1` [Example 11, 1-[2-(4-{[(3,4-Dichlorophenyl)methyl]amino}-1-piperidinyl)ethyl]-7-(methyloxy)-1,5-naphthyridin-2(1H)-one]: the minimal inhibitory concentration (MIC) was no more than 1 µg/mL.

By MIC is commonly meant the lowest concentration found to suppress growth. Low readings indicate greater potency, high ones weaker potency.
